Results reported in patent US5451582A, “Benzodiazepine derivatives, compositions containing them and their use in therapy” (Merck Sharp & Dohme Ltd., priority 1992, dated 1995).

Experiments:
[1] = biological target: T1, CCK receptor (pancreas) (Rattus norvegicus, UniProt P30551); assay: CCK Receptor Binding (Pancreas), inhibition of 125I-CCK-8 binding; set-up: species or system rat (male Sprague-Dawley); conditions: rat pancreas membranes; 50 pM 125I-CCK-8; pH 6.5; 25° C., 2 hours
T1 construct: The whole pancreas was dissected free of fat tissue and was homogenized; from tissue; host or cells: rat pancreas membranes (male Sprague-Dawley)
T1 sequence (P30551 1-444): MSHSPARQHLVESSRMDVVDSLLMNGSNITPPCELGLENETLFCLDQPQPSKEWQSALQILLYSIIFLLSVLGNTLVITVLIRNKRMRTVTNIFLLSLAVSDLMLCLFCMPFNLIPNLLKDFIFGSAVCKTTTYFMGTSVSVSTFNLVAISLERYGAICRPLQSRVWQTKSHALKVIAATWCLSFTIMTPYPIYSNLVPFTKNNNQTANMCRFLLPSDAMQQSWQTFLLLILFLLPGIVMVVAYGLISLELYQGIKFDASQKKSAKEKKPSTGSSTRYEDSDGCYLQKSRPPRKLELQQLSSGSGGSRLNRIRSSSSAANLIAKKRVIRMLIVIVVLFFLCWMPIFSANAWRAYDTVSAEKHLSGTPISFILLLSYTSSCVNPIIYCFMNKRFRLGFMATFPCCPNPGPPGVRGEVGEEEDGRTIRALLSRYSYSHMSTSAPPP
Experimental: 1. CCK Receptor Binding (Pancreas)
CCK-8 sulphated was radiolabelled with ^125 I-Bolton Hunter reagent (2000 Ci/mmole). Receptor binding was performed according to Chang and Lotti (Proc. Natl. Acad. Sci. 83, 4923-4926, 1986) with minor modifications.
Male Sprague-Dawley rats (150-200 g) were sacrificed by decapitation. The whole pancreas was dissected free of fat tissue and was homogenized in 25 volumes of ice-cold 10 mM N-2-hydroxyethyl-piperazine-N'-2-ethane sulphonic acid (HEPES) buffer with 0.1% soya bean trypsin inhibitor (pH 7.4 at 25° C.) with a Kinematica Polytron. The homogenates were centrifuged at 47,800 g for 10 min. Pellets were resuspended in 10 volumes of binding assay buffer (20 mM (HEPES)), 1 mM ethylene glycol-bis-(β-aminoethylether-N,N'-tetraacetic acid) (EGTA), 5 mM MgCl2, 150 mM NaCl, bacitracin 0.25 ml/ml, soya bean trypsin inhibitor 0.1 ml/ml, and bovine serum albumin 2 ml/ml pH 6.5 at 25° C.) using a Teflon (trademark) homogenizer, 15 strokes at 500 rpm. The homogenate was further diluted in binding assay buffer to give a final concentration of 0.5 ml original wet weight/1 ml buffer. For the binding assay, 50 μl of buffer (for total binding) or unlabelled CCK-8 sulphated to give a final concentration of 1 μM (for nonspecific binding) or the compounds of Formula I (for determination of inhibition of ^125 I-CCK-8 binding) and 50 μl of 500 pM ^125 I-CCK-8 (i.e. 50 pM final concentration) were added to 400 μl of the membrane suspensions in microfuge tubes. All assays were run in duplicate. The reaction mixtures were incubated at 25° C. for 2 hours and the reaction terminated by rapid filtration (Brandell 24 well cell harvester) over Whatman GF/C filters, washing 3×4 mls with ice-cold 100 Mm NaCl. The radioactivity on the filters was counted with a LKB gamma counter.
The preferred compounds of Formula I are those which produced dose-dependent inhibition of specific ^125 I-CCK-8 binding as defined as the difference between total and non-specific (i.e. in the presence of 1 μM CCK) binding. […]

[2] = biological target: T2, CCK receptor (brain) (Cavia porcellus, UniProt H0VZC5); assay: CCK Receptor Binding (Brain), inhibition of 125I-CCK-8 binding; set-up: species or system guinea pig (male Hartley); conditions: guinea pig cortex membranes; 50 pM 125I-CCK-8; pH 6.5; 25° C., 2 hours
T2 construct: the cortex was removed and homogenized in 25 mL ice-cold 0.32M sucrose; from tissue; host or cells: guinea pig cerebral cortex P2 membranes (male Hartley)
T2 sequence (H0VZC5 1-426): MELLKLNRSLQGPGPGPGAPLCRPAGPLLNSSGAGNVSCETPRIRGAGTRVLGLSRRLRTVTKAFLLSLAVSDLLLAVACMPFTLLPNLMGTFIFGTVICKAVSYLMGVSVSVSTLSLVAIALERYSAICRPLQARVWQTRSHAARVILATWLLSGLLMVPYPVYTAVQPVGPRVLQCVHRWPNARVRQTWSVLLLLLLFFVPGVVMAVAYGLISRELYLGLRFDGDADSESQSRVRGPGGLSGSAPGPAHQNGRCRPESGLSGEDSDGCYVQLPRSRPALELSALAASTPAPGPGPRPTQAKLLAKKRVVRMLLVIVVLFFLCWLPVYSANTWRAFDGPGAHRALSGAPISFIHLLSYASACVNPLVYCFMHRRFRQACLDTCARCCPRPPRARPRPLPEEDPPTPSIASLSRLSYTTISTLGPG
Experimental: 2. CCK Receptor Binding (Brain)
CCK-8 sulphated was radiolabelled and the binding was performed according to the description for the pancreas method with minor modifications.
Male Hartley guinea pigs (300-500 g) were sacrificed by decapitation and the cortex was removed and homogenized in 25 mL ice-cold 0.32M sucrose. The homogenates were centrifuged at 1000 g for 10 minutes and the resulting supernatant was recentrifuged at 20,000 g for 20 minutes. The P2 pellet was resuspended in binding assay buffer (20 mM HEPES, 5 mMMgCl2, 0.25 ml/ml bacitracin, 1 mM EGTA pH 6.5 at 25° C.), using a Teflon (trademark) homogenizer (5 strokes at 500 rpm) to give a final concentration of […] original wet weight/1.2 ml buffer. For the binding assay, 50 μl of buffer (for total binding) or unlabelled CCK-8 sulphated to give a final concentration of 1 μM (for nonspecific binding) or the compounds of Formula I (for determination of inhibition of ^125 I-CCK-8 binding) and 50 μl of 500 pM ^125 I-CCK-8 (i.e. final concentration of 50 pM) were added to 400 μl of the membrane suspensions in microfuge tubes. All assays were run in duplicate. The reaction mixtures were incubated at 25° C. for 2 hours and then the reaction was terminated by rapid filtration (Brandell 24 well cell harvester) on Whatman GF/C filters with 3×5 ml washes of cold 100 mM NaCl. The radioactivity on the filters was counted with a LKB gamma counter.
The preferred compounds of Formula I are those which produced dose-dependent inhibition of specific ^125 I-CCK-8 binding as defined as the difference between total and non-specific (i.e. in the presence of 1 μM CCK) binding.
Drug displacement studies were performed with at least 10 concentrations of compounds of Formula I and the IC50 values were determined by regression analysis IC50 refers to the concentration of the compound required to inhibit 50% of specific binding of ^125 I-CCK-8.

Row | IC50 [1] | IC50 [2] | SMILES
1 | > 3000 nM | 104 nM | CC1=NC(NC(=O)Nc2cccc(-c3nn[nH]n3)c2)C(=O)N(C)c2ccccc21 (racemic) [Example 1, N-[3(R,S)-2,3-Dihydro-1,5-dimethyl-2-oxo-1H-1,4-benzodiazepin-3-yl]N'-[3-tetrazol-5-ylphenyl]urea]
2 | 600 nM | 17 nM | CC(C)CN1C(=O)C(NC(=O)Nc2cccc(-c3nn[nH]n3)c2)N=C(C(C)C)c2ccccc21 (racemic) [Example 2, N-[3(R,S)-2,3-Dihydro-1-(2-methylpropyl)-2-oxo-5-(2-propyl) -1H-1,4-benzodiazepin-3-yl]N'-[3-tetrazol-5-ylphenyl]urea]
3 | 612 nM | 32 nM | CC(C)CN1C(=O)C(NC(=O)Nc2cccc(C(=O)NS(C)(=O)=O)c2)N=C(C(C)(C)C)c2ccccc21 (racemic) [Example 3, N-[3(R,S)-2,3-Dihydro-5-(1,1-dimethylethyl)-1-(2-methylpropyl) -2-oxo-1H-1,4-benzodiazepin-3yl]N'-(3-(methylsulphonylaminocarbonyl)phenyl]urea]
